In paper PMC12447755, “β-Lactamase cleavable antimicrobial peptide–drug conjugates” (Chemical Science, 2025):
Values after ≈ are worked out from the molar mass of the structure shown. Like-named read-outs stand apart in the source and are kept apart here. Where no end group is shown, it is not given here.

Tests used:
[1] = tested on: P. aeruginosa strain PAO1; test: microbe, parasite or virus in culture; conditions: Pseudomonas aeruginosa, PAO1, 16 h, read-out: MIC for PAO1
[2] = tested on: P. aeruginosa strain PA14; conditions: for MIC for PA14: PA14, 18 h
[3] = tested on: Enterococcus faecalis ATCC29212; test: microbe, parasite or virus in culture; conditions: ATCC29212, 16 h
[4] = tested on: Serratia marcescens ATCC39006; test: microbe, parasite or virus in culture; conditions: ATCC39006, 16 h
[5] = tested on: P. aeruginosa strain PAO1
[6] = tested on: P. aeruginosa strain PA14; test: microbe, parasite or virus in culture; conditions: Pseudomonas aeruginosa
Escherichia coli DH5a [7] = test: microbe, parasite or virus in culture; conditions: 16 h
[8] = human serum 100 µL in 400 µL MES buffer (pH 6, 50 mM), 37 °C, protein precipitated with 1:1 DMSO:ethanol, HPLC at 220 nm, caffeine standard; Fig. 5b, values not given
[9] = tested on: Enterococcus faecalis ATCC29212; conditions: ATCC29212, 16 h
Escherichia coli DH5a [10] = conditions: 16 h
[11] = tested on: Klebsiella pneumoniae CK1; conditions: CK1, 16 h
[12] = tested on: Burkholderia thailandensis E264; conditions: Table 4; broth microdilution in MH medium, 37 °C, 16 h
[13] = tested on: Methicillin-resistant Staphylococcus aureus MRSA15; conditions: Table 4; broth microdilution in MH medium, 37 °C, 16 h
[14] = tested on: Serratia marcescens ATCC39006; conditions: ATCC39006, 16 h
[15] = Background stability in PBS buffer; assay type: physicochemical; conditions: PBS buffer pH 7.4 (50 mM), 37 °C, HPLC at 280 nm, Fig. 5a; values not given
[16] = tested on: PAO1 strain containing plasmid pUCP20, which encodes a β-lactamase; test: MIC determination using broth microdilution method; assay type: cell-based, Pseudomonas aeruginosa
[17] = tested on: Pseudomonas aeruginosa strain PAO1; test: Initial susceptibility testing at a fixed concentration; assay type: cell-based; design: key: Tick (✓) represents OD600 comparable to no-growth control; cross (✗) represents OD600 comparable to growth control without any peptide; conditions: 256 μg mL−1 of peptide, overnight incubation, OD600 compared with growth and no-growth controls
P. aeruginosa = test: Drug synergism assay; assay type: cell-based, Pseudomonas aeruginosa; conditions: P2a combined with ciprofloxacin, checkerboard in MH medium, 37 °C, 16 h; synergy threshold 0.5; strain not stated
Protocol: measured and 15 µL of thiazolyl blue tetrazolium bromide (MTT; 1 mg/mL stock solution in water; Acros) was added to each well of the plate. The MIC was defined as the lowest concentration of the compound with a colourless well indicating no bacterial growth and the results cross-checked with OD600 reading. Each sample was run in triplicate on the same plate. Polymyxin B or ciprofloxacin or both were used as positive controls to ensure comparability of results across different experiments.
Bacterial culture was quantified by measuring the OD600, medium exchanged to MH-medium and culture diluted to OD600 of 0.022 in MH-medium. Stock solution of compound A was diluted to twice the starting concentration in MH medium. […] The next day, OD600 of the microtiter plate was measured and 15 µL of thiazolyl blue tetrazolium bromide (MTT; 1 mg/mL stock solution in water) was added to each well of the plate to cross-check the OD600 readings. […]
150 µL of the solution was added to 96-well plate (3 wells per bacterium) as well as 150 µL of MH medium as a negative control (further 3 wells per bacterium). The media were inoculated with 4 µL of the diluted bacterial solution and incubated in a plate reader at 37◦C for 16 h and absorption at 482 nm (Abs482) and 600 nm (OD600) was continuously measured throughout the incubation. […]

O=C(O)c1cn(C2CC2)c2cc(N3CCNCC3)c(F)cc2c1=O [Ciprofloxacin, ciprofloxacin]
MIC [1]: 0.125 µg/mL (≈ 0.377 µM) | PA14 MIC ([2]; Table S5): 0.0625 µg/mL | MIC [3]: 0.5 µg/mL (≈ 1.51 µM) | MIC [4]: 0.0625 µg/mL (≈ 0.189 µM) | MIC for PAO1 ([5]; Table 3, data combined from multiple experiments, standard medium): 0.38 µM | PAO1 MIC ([5]; Table S5, altered linking region between peptide and cephalosporin): 0.125 µg/mL | MIC ([6]; PA14, 16 h, read-out: MIC for PA14): 0.0625 µg/mL | MIC ([6]; PA14, read-out: MIC for PA14): 0.19 µM | MIC (Escherichia coli DH5a [7]): 0.0078 µg/mL (≈ 0.0235 µM)

CC(=O)OCC1=C(C(=O)O)N2C(=O)[C@@H](NC(=O)CCCNc3nc4cc(n3)CCSC[C@H](NC(=O)[C@@H](N)Cc3ccccc3)C(=O)N[C@@H](CCCCN)C(=O)N[C@@H](Cc3c[nH]c5ccccc35)C(=O)N[C@@H](C)C(=O)N[C@@H](Cc3ccccc3)C(=O)N[C@@H](CCCCN)C(=O)N[C@@H](Cc3c[nH]c5ccccc35)C(=O)N[C@H](C(=O)N[C@@H](CCCCN)C(=O)N[C@@H](CCCCN)C(N)=O)CSCC4)[C@H]2SC1 [P2-8]
serum stability [8]: improved stability over unstapled P2a | MIC for PA14 [2]: > 33 µM | MIC [9]: 2 µg/mL (≈ 1.02 µM) | MIC (Escherichia coli DH5a [10]): 32 µg/mL (≈ 16.3 µM) | MIC [11]: ≥ 64 µg/mL | MIC [12]: ≥ 64 µg/mL | MIC for PAO1 ([5]; PAO1, 18 h): > 33 µM | MIC [13]: 64 µg/mL (≈ 32.6 µM) | MIC [14]: ≥ 64 µg/mL

C[C@@H]1NC(=O)[C@H](Cc2c[nH]c3ccccc23)NC(=O)[C@H](CCCCN)NC(=O)[C@@H](NC(=O)[C@@H](N)Cc2ccccc2)CSCCc2cc(nc(NCCCC(=O)N[C@@H]3C(=O)N4C(C(=O)O)C(COC(=O)N5CCN(c6cc7c(cc6F)c(=O)c(C(=O)O)cn7C6CC6)CC5)=CS[C@H]34)n2)CCSC[C@@H](C(=O)N[C@@H](CCCCN)C(=O)N[C@@H](CCCCN)C(N)=O)NC(=O)[C@H](Cc2c[nH]c3ccccc23)NC(=O)[C@H](CCCCN)NC(=O)[C@H](Cc2ccccc2)NC1=O (stereo partly drawn) [P2-10]
serum stability [8]: improved stability over unstapled P2a | background hydrolysis rate mediated by buffer only [15]: significantly lower than when β-lactamase was present | MIC for PA14 [2]: 7.0 µM | PA14 MIC ([2]; Table S3, initial MIC values): 16 µg/mL | MIC [9]: 16 µg/mL (≈ 7.03 µM) | MIC (Escherichia coli DH5a [10]): 1 µg/mL (≈ 0.439 µM) | MIC [11]: ≥ 64 µg/mL | MIC for PAO1 ([5]; PAO1, 18 h): 7.0 µM | PAO1 MIC ([5]; Table S3, initial MIC values): 16 µg/mL | MIC for PAO1 after adding β-lactamase ([5]; medium supplemented with 1 nM recombinant β-lactamase): 2 µg/mL | reduction in MIC in PAO1 with plasmid pUCP20 versus PAO1 ([16]; Fig. 4 and Table 3): one half | MIC [14]: 16 µg/mL (≈ 7.03 µM)

FAKWAFKWLKK-NH2 [P2a, reference compound]
Inh (inhibition) [17]: ✗ | fractional inhibitory concentration index (P. aeruginosa): 0.75 | MIC PA14 ([2]; PA14, 16 h): 64 µg/mL | PA14 MIC ([2]; Table S3, initial MIC values): 32 µg/mL | PA14 MIC ([2]; Table S4): 22 µM | MIC [9]: ≥ 64 µg/mL | MIC (Escherichia coli DH5a [10]): 4 µg/mL | PAO1 MIC ([5]; PAO1, 18 h): 11 µM | PAO1 MIC ([5]; Table S4, cephalosporin-based staple 8 at different positions): 16 µg/mL | cell growth inhibition in strain with plasmid versus without ([16]; OD600 growth curve, triplicate, Fig. 4b): no difference in cell growth inhibition | MIC [13]: 32 µg/mL | MIC [14]: ≥ 64 µg/mL
